Consider four compounds from patent EP2687509A2, “Dicarboxyimides derivatives for use in the treatment of cancer” (Warszawski Uniwersytet Medyczny, priority 2012, dated 2014).

Read-outs that look alike come from different tables or passages of the source. Some results are limits rather than exact numbers.

The subject of series [1] is peripheral blood lymphocytes. Conditions: normal cells (peripheral blood lymphocytes); cited from earlier work.
Another series relates to caspase-3. Conditions: MOLT-4 cells; 5µM; after 12 hours of incubation; cited from earlier work.
In a further series the test system is caspase-6. Conditions: MOLT-4 cells; 5µM; after 24 hours of incubation; cited from earlier work.
For series [2], the system named is tumor cell lines (leukemia, breast cancer, neuroblastoma, colorectal cancer, liver, prostate, lung). Conditions: 13 tested tumor cell lines; cited from earlier work.
The conditions of series [3]: mouse, in vivo; cited from earlier work.
Series [4] concerns murine leukemia, breast cancer and orthotopic models of non-small cell lung cancer and pancreatic cancer. Conditions: cited from earlier work.
The conditions of series [5]: higher than for the lead compound amonafide; cited from earlier work.
For another series, the system named is HeLa cells. In words: MTT cytotoxicity assay, HeLa cells. Particulars: Homo sapiens, 48 h incubation, * = compound precipitated at 1 mM from cell cultures. It counts as cell-based. Here is the method: (§1) A series of dicarboximides derivatives (table 1) was tested for cytotoxic properties against four cell lines. The tests were conducted by means of MTT assay where yellow tetrazole salt was processed by the dehydrogenases in mitochondria of live cells into violet formazan. The following cell lines were used:
- HeLa cells (uterine cervix cancer)
(§2) 1. HeLa, K562, HL60, HUVEC cells in an amount of 7 thousand cells / well (in 200 µL medium) were seeded in 96-well plates. Cells were incubated overnight in an incubator (37°C, 5% CO2)
(§3) 2. Test compounds were dissolved in DMSO and added in an amount of 2µL to the surface of the cells to give the following final concentrations in the cell culture (1 mM, 10 µm, 100 nM, 1 nM). As a control, cells exposed to 1% DMSO were used.
(§4) 3. Cytotoxicity of the test compounds was evaluated by MTT test. After 48-hour incubation of HeLa, K562, HL60 or HUVEC cells with the test compounds, MTT (5mg/mL) was added in an amount of 25µL/well. MTT, a yellow tetrazolium salt was reduced to purple formazan by mitochondrial dehydrogenases of living cells. The amount of formazan could be determined spectrophotometrically and was proportional to the number of live cells. Cells were incubated with MTT for 2 hours in an incubator (37°C, 5% CO2). Next, lysis buffer containing SDS and DMF was added (95µL/well) to each well and incubated overnight at 37°C, 5% CO2.
(§5) 4. The plates were analyzed by reading the absorbance at a wavelength of 570 nm and 650 nm using the plate-reader Fluostar Omega. The measured absorbance at 570 nm is proportional to the number of living cells. IC50 values (concentration of compound causing 50% cell mortality) were read from the charts by interpolation to 50% cell survival.
(Formazan colour is commonly taken as a measure of viable cells.)

For series [6], the system named is K562 cells. The series is described as follows: MTT cytotoxicity assay, K562 cells. Particulars: 48 h incubation, * = compound precipitated at 1 mM from cell cultures. It counts as cell-based, human. As for the experimental part: as §1
- K562 cells (human chronic myelogenous leukaemia) and
as §2, §3, §4, §5

A further series relates to HUVEC cells. In words: MTT cytotoxicity assay, HUVEC cells. The format is cell-based. Conditions: Homo sapiens, 48 h incubation, * = compound precipitated at 1 mM from cell cultures. As for the experimental part: as §1
- HUVEC cells (normal human endothelial cells).
as §2, §3, §4, §5

The subject of a further series is caspase 3 and 7. The series is described as follows: Apo-ONE Homogeneous Caspase-3/7 Assay in K562 cells. It counts as cell-based, human. Conditions: 5 x IC50 (a5: 10 µM), 18 hours, compared with K562 and K562+DMSO, Fig. 1. Here is the method: The observed cytotoxicity of compounds a3-7 was tested for its origin, i.e. induction of necrosis or apoptosis in the K562 cells of chronic myelogenous leukaemia.
K562 cells in RPMI 1640 medium containing 10% fetal calf serum and antibiotics were seeded on 96-well plate in an amount of 20x10^3 cells / well. Cells were cultured for 24 hours in an incubator (5% CO2, 37°C).
Compounds a3-a7 were dissolved in DMSO and added to the cell medium; final concentration in the cell culture was 5 x IC50. Cells cultured in the presence of 1% DMSO served as a negative control. Cells grown in the presence of 1 µM staurosporin (a strong inducer of apoptosis) served as a positive control. […]
The activity of caspase 3 and 7 was determined by means of Apo-ONE® Homogeneous Caspase-3/7 Assay (Promega, Madison, WI, USA), in compliance with manufacturer's guidelines. Cells were lysed and incubated with a profluorescent substrate for caspases for 1.5 hours at room temperature. Due to proteolytic activity of caspases, the profluorescent substrate was converted into a fluorescent product the amount of which could be determined by measurement of fluorescence intensity.
The fluorescence intensity in each well was measured using a plate reader Fluostar Omega (BMG-Labtech, Germany) at an excitation wavelength of 485 nm and emission 520 nm. The intensity of fluorescence is proportional to the activity of caspase 3 and 7 in the sample.

Another series has as its system HL60 cells. The series is described as follows: MTT cytotoxicity assay, HL60 cells. The format is cell-based. Conditions: Homo sapiens, HL-60, 48 h, 48 h incubation. As for the experimental part:
as §1
- HL60 cells (human acute myelogenous leukaemia)
as §2, §3, §4, §5

Series [7] concerns K562 cells. Particulars: against K562 cells; for comparison; cited from earlier work.

In the case of `O=C1c2cccc3c([N+](=O)[O-])ccc(c23)C(=O)N1CCCO` [6-nitro-2-(3-hydroxypropyl)-1H-benz[de]izoquinolino-1,3-dione], the 50% inhibitory concentration (IC50) (in general, the point on the concentration scale where inhibition reaches its midpoint) in [1] was 273 µM. Further, in the series with caspase-3, the caspase-3 activity result is recorded as “significant increase”. Besides, the caspase-6 activity entry in the series with caspase-6 is “significant increase”. Also, the “tested tumor cell lines to which the compound was toxic” value in [2] is given as 8 of 13.

`CN(C)CCN1C(=O)c2cccc3cc(NC(=O)NC(=O)C(Cl)(Cl)Cl)cc(c23)C1=O` [UNBS3157, 2,2,2-trichloro-N-({2-[2-(dimethylamino)ethyl]-1,3-dioxo-2,3-dihydro-1H-benzo[de]izoquinolino-5-ylo}carbamoylo)acetamide]: in series [3], the haemotoxicity entry is “no haemotoxicity”. Besides, the “activity in in vivo models compared to amonafide” value in series [4] is listed as “enhanced activity”. For the same compound, in series [5], the “maximum tolerated dose relative to amonafide” value is listed as “about 4 x”.

Take `CCC12C(=O)C(CC)(C(c3ccccc3)=C1c1ccccc1)C1C(=O)N(CCCN(C)C)C(=O)C12` (centres unmarked) [a6]: the 50% inhibitory concentration (IC50) with HeLa cells was over 1000 µM; in the series on K562 cells [6], 8 µM; with HUVEC cells, over 1000 µM; in the series with HL60 cells it was 1 to 10 µM; in the series with HL60 cells (* = compound precipitated at 1 mM from cell cultures), over 1000 µM. Further, in the series with caspase 3 and 7, the “activity of caspase 3 and 7” value was “do not increase”.

Take `N.N.[Cl][Pt][Cl]` [cis-platinum]: the IC50 entry in the series with K562 cells [7] is “several to several dozens”.
